Results taken from the supplement of paper PMC10307832.

What was measured:
Assay in all cases: relative viability (nuclei count vs DMSO), 5 days (fraction); higher = more cells survive
NCI-H2342 = tested on: NCI-H2342
Method in brief: (§1)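 One day after seeding in 1536-well plates, lung cancer cell lines were dosed by pin tool. Dosing was either single-drug or a fixed anchor-drug dose plus five library-drug doses (not always all listed) in √10 steps. After 5 days, nuclei were stained in one fix-and-stain step and counted on 4× images, and relative viability is the nuclei count of treated wells over that of vehicle wells, given as the median of duplicate plates.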

NCI-H2170 = tested on: NCI-H2170
Method in brief: as §1

NCI-H1395 = tested on: NCI-H1395
Method in brief: as §1

NCI-H661 = tested on: NCI-H661
Method in brief: as §1

HCC-366 = tested on: HCC-366
Method in brief: as §1

BEN = tested on: BEN
Method in brief: as §1

NCI-H1734 = tested on: NCI-H1734
Method in brief: as §1

SK-MES-1 = tested on: SK-MES-1
Method in brief: as §1

NCI-H1993 = tested on: NCI-H1993
Method in brief: as §1

NCI-H1437 = tested on: NCI-H1437
Method in brief: as §1

NCI-H1355 = tested on: NCI-H1355
Method in brief: as §1

NCI-H522 = tested on: NCI-H522
Method in brief: as §1

NCI-H2405 = tested on: NCI-H2405
Method in brief: as §1

NCI-H1792 = tested on: NCI-H1792
Method in brief: as §1

EKVX = tested on: EKVX
Method in brief: as §1

HCC-827 = tested on: HCC-827
Method in brief: as §1

LOU-NH91 = tested on: LOU-NH91
Method in brief: as §1

SK-LU-1 = tested on: SK-LU-1
Method in brief: as §1

HARA = tested on: HARA
Method in brief: as §1

NCI-H2009 = tested on: NCI-H2009
Method in brief: as §1

NCI-H2087 = tested on: NCI-H2087
Method in brief: as §1

NCI-H647 = tested on: NCI-H647
Method in brief: as §1

Structure (SMILES): O=c1cc(N2CCOCC2)oc2c(-c3cccc4c3sc3ccccc34)cccc12 + N=C(N)NC(=N)NCCc1ccccc1 [Phenformin] (partner 250 µM)
- relative viability (NCI-H2342; first compound 0.01 µM): 0.575
- relative viability (NCI-H2342; first compound 0.03162 µM): 0.59
- relative viability (NCI-H2342; first compound 0.1 µM): 0.601
- relative viability (NCI-H2342; first compound 0.3162 µM): 0.621
- relative viability (NCI-H2342; first compound 1 µM): 0.576
- relative viability (NCI-H2170; first compound 0.01 µM): 0.401
- relative viability (NCI-H2170; first compound 0.03162 µM): 0.422
- relative viability (NCI-H2170; first compound 0.1 µM): 0.462
- relative viability (NCI-H2170; first compound 0.3162 µM): 0.384
- relative viability (NCI-H2170; first compound 1 µM): 0.39
- relative viability (NCI-H1395; first compound 0.01 µM): 0.435
- relative viability (NCI-H1395; first compound 0.03162 µM): 0.45
- relative viability (NCI-H1395; first compound 0.1 µM): 0.417
- relative viability (NCI-H1395; first compound 0.3162 µM): 0.461
- relative viability (NCI-H1395; first compound 1 µM): 0.447
- relative viability (NCI-H661; first compound 0.01 µM): 0.291
- relative viability (NCI-H661; first compound 0.03162 µM): 0.278
- relative viability (NCI-H661; first compound 0.1 µM): 0.28
- relative viability (NCI-H661; first compound 0.3162 µM): 0.269
- relative viability (NCI-H661; first compound 1 µM): 0.285
- relative viability (HCC-366; first compound 0.01 µM): 0.608
- relative viability (HCC-366; first compound 0.03162 µM): 0.697
- relative viability (HCC-366; first compound 0.1 µM): 0.661
- relative viability (HCC-366; first compound 0.3162 µM): 0.601
- relative viability (HCC-366; first compound 1 µM): 0.668
- relative viability (BEN; first compound 0.01 µM): 0.241
- relative viability (BEN; first compound 0.03162 µM): 0.305
- relative viability (BEN; first compound 0.1 µM): 0.27
- relative viability (BEN; first compound 0.3162 µM): 0.271
- relative viability (BEN; first compound 1 µM): 0.292
- relative viability (NCI-H1734; first compound 0.01 µM): 0.379
- relative viability (NCI-H1734; first compound 0.03162 µM): 0.379
- relative viability (NCI-H1734; first compound 0.1 µM): 0.403
- relative viability (NCI-H1734; first compound 0.3162 µM): 0.388
- relative viability (NCI-H1734; first compound 1 µM): 0.352
- relative viability (SK-MES-1; first compound 0.01 µM): 0.652
- relative viability (SK-MES-1; first compound 0.03162 µM): 0.688
- relative viability (SK-MES-1; first compound 0.1 µM): 0.688
- relative viability (SK-MES-1; first compound 0.3162 µM): 0.671
- relative viability (SK-MES-1; first compound 1 µM): 0.668
- relative viability (NCI-H1993; first compound 0.01 µM): 0.61
- relative viability (NCI-H1993; first compound 0.03162 µM): 0.508
- relative viability (NCI-H1993; first compound 0.1 µM): 0.506
- relative viability (NCI-H1993; first compound 0.3162 µM): 0.483
- relative viability (NCI-H1993; first compound 1 µM): 0.556
- relative viability (NCI-H1437; first compound 0.01 µM): 0.32
- relative viability (NCI-H1437; first compound 0.03162 µM): 0.323
- relative viability (NCI-H1437; first compound 0.1 µM): 0.298
- relative viability (NCI-H1437; first compound 0.3162 µM): 0.338
- relative viability (NCI-H1437; first compound 1 µM): 0.282
- relative viability (NCI-H1355; first compound 0.01 µM): 0.45
- relative viability (NCI-H1355; first compound 0.03162 µM): 0.446
- relative viability (NCI-H1355; first compound 0.1 µM): 0.316
- relative viability (NCI-H1355; first compound 0.3162 µM): 0.447
- relative viability (NCI-H1355; first compound 1 µM): 0.42
- relative viability (NCI-H522; first compound 0.01 µM): 0.724
- relative viability (NCI-H522; first compound 0.03162 µM): 0.662
- relative viability (NCI-H522; first compound 0.1 µM): 0.572
- relative viability (NCI-H522; first compound 0.3162 µM): 0.621
- relative viability (NCI-H522; first compound 1 µM): 0.618
- relative viability (NCI-H2405; first compound 0.01 µM): 0.364
- relative viability (NCI-H2405; first compound 0.03162 µM): 0.38
- relative viability (NCI-H2405; first compound 0.1 µM): 0.356
- relative viability (NCI-H2405; first compound 0.3162 µM): 0.424
- relative viability (NCI-H2405; first compound 1 µM): 0.404
- relative viability (NCI-H1792; first compound 0.01 µM): 0.26
- relative viability (NCI-H1792; first compound 0.03162 µM): 0.202
- relative viability (NCI-H1792; first compound 0.1 µM): 0.213
- relative viability (NCI-H1792; first compound 0.3162 µM): 0.32
- relative viability (NCI-H1792; first compound 1 µM): 0.184
- relative viability (EKVX; first compound 0.01 µM): 0.228
- relative viability (EKVX; first compound 0.03162 µM): 0.238
- relative viability (EKVX; first compound 0.1 µM): 0.201
- relative viability (EKVX; first compound 0.3162 µM): 0.216
- relative viability (EKVX; first compound 1 µM): 0.199
- relative viability (HCC-827; first compound 0.01 µM): 0.368
- relative viability (HCC-827; first compound 0.03162 µM): 0.391
- relative viability (HCC-827; first compound 0.1 µM): 0.396
- relative viability (HCC-827; first compound 0.3162 µM): 0.405
- relative viability (HCC-827; first compound 1 µM): 0.402
- relative viability (LOU-NH91; first compound 0.01 µM): 0.58
- relative viability (LOU-NH91; first compound 0.03162 µM): 0.688
- relative viability (LOU-NH91; first compound 0.1 µM): 0.689
- relative viability (LOU-NH91; first compound 0.3162 µM): 0.791
- relative viability (LOU-NH91; first compound 1 µM): 0.618
- relative viability (SK-LU-1; first compound 0.01 µM): 0.573
- relative viability (SK-LU-1; first compound 0.03162 µM): 0.551
- relative viability (SK-LU-1; first compound 0.1 µM): 0.531
- relative viability (SK-LU-1; first compound 0.3162 µM): 0.509
- relative viability (SK-LU-1; first compound 1 µM): 0.45
- relative viability (HARA; first compound 0.01 µM): 0.414
- relative viability (HARA; first compound 0.03162 µM): 0.472
- relative viability (HARA; first compound 0.1 µM): 0.416
- relative viability (HARA; first compound 0.3162 µM): 0.502
- relative viability (HARA; first compound 1 µM): 0.482
- relative viability (NCI-H2009; first compound 0.01 µM): 0.471
- relative viability (NCI-H2009; first compound 0.03162 µM): 0.504
- relative viability (NCI-H2009; first compound 0.1 µM): 0.487
- relative viability (NCI-H2009; first compound 0.3162 µM): 0.492
- relative viability (NCI-H2009; first compound 1 µM): 0.464
- relative viability (NCI-H2087; first compound 0.01 µM): 0.423
- relative viability (NCI-H2087; first compound 0.03162 µM): 0.535
- relative viability (NCI-H2087; first compound 0.1 µM): 0.45
- relative viability (NCI-H2087; first compound 0.3162 µM): 0.46
- relative viability (NCI-H2087; first compound 1 µM): 0.431
- relative viability (NCI-H647; first compound 0.01 µM): 0.547
- relative viability (NCI-H647; first compound 0.03162 µM): 0.643
- relative viability (NCI-H647; first compound 0.1 µM): 0.319
- relative viability (NCI-H647; first compound 0.3162 µM): 0.526
- relative viability (NCI-H647; first compound 1 µM): 0.715
